Assay results from ChEMBL document CHEMBL4813932, “Terpenoid Constituents of Perovskia artemisioides Aerial Parts with Inhibitory Effects on Bacterial Biofilm Growth” (2021).

What was measured:
Assay in all cases: microbe, parasite or virus in culture
Format in all cases: functional
Staphylococcus aureus [1] = conditions: ATCC 25923, time 48 hrs
Description: Antibiofilm activity against Staphylococcus aureus ATCC 25923 assessed as inhibition of biofilm formation at 4 ug/ml measured after 48 hrs by crystal violet staining based assay relative to control

Listeria monocytogenes [2] = conditions: ATCC 7644, time 48 hrs
Description: Antibiofilm activity against Listeria monocytogenes ATCC 7644 assessed as inhibition of bacterial metabolism within the biofilm at 8 ug/ml measured after 48 hrs by MTT assay relative to control

Escherichia coli [3] = conditions: DSM 8579, time 48 hrs
Description: Antibiofilm activity against Escherichia coli DSM 8579 assessed as inhibition of biofilm formation at 40 ug/ml measured after 48 hrs by crystal violet staining based assay relative to control

Escherichia coli [4] = conditions: DSM 8579, time 48 hrs; remark: listed apart in the source
Description: Antibiofilm activity against Escherichia coli DSM 8579 assessed as inhibition of bacterial metabolism within the biofilm at 80 ug/ml measured after 48 hrs by MTT assay relative to control

Staphylococcus aureus [5] = conditions: ATCC 25923, time 48 hrs; remark: listed apart in the source
Description: Antibiofilm activity against Staphylococcus aureus ATCC 25923 assessed as inhibition of biofilm formation at 8 ug/ml measured after 48 hrs by crystal violet staining based assay relative to control

Pseudomonas aeruginosa [6] = conditions: ATCC 50071, time 48 hrs
Description: Antibiofilm activity against Pseudomonas aeruginosa ATCC 50071 assessed as inhibition of biofilm formation at 4 ug/ml measured after 48 hrs by crystal violet staining based assay relative to control

Listeria monocytogenes [7] = conditions: ATCC 7644, time 48 hrs; remark: listed apart in the source
Description: Antibiofilm activity against Listeria monocytogenes ATCC 7644 assessed as inhibition of biofilm formation at 8 ug/ml measured after 48 hrs by crystal violet staining based assay relative to control

Listeria monocytogenes [8] = conditions: ATCC 7644, time 48 hrs; remark: listed apart in the source
Description: Antibiofilm activity against Listeria monocytogenes ATCC 7644 assessed as inhibition of bacterial metabolism within the biofilm at 4 ug/ml measured after 48 hrs by MTT assay relative to control

Escherichia coli [9] = conditions: DSM 8579, time 48 hrs; remark: listed apart in the source
Description: Antibiofilm activity against Escherichia coli DSM 8579 assessed as inhibition of biofilm formation at 80 ug/ml measured after 48 hrs by crystal violet staining based assay relative to control

Pseudomonas aeruginosa [10] = conditions: ATCC 50071, time 48 hrs; remark: listed apart in the source
Description: Antibiofilm activity against Pseudomonas aeruginosa ATCC 50071 assessed as inhibition of bacterial metabolism within the biofilm at 4 ug/ml measured after 48 hrs by MTT assay relative to control

Listeria monocytogenes [11] = conditions: ATCC 7644, time 48 hrs; remark: listed apart in the source
Description: Antibiofilm activity against Listeria monocytogenes ATCC 7644 assessed as inhibition of biofilm formation at 4 ug/ml measured after 48 hrs by crystal violet staining based assay relative to control

Pseudomonas aeruginosa [12] = conditions: ATCC 50071, time 48 hrs; remark: listed apart in the source
Description: Antibiofilm activity against Pseudomonas aeruginosa ATCC 50071 assessed as inhibition of biofilm formation at 8 ug/ml measured after 48 hrs by crystal violet staining based assay relative to control

Pseudomonas aeruginosa [13] = conditions: ATCC 50071, time 48 hrs; remark: listed apart in the source
Description: Antibiofilm activity against Pseudomonas aeruginosa ATCC 50071 assessed as inhibition of bacterial metabolism within the biofilm at 8 ug/ml measured after 48 hrs by MTT assay relative to control

Staphylococcus aureus [14] = conditions: ATCC 25923, time 48 hrs; remark: listed apart in the source
Description: Antibiofilm activity against Staphylococcus aureus ATCC 25923 assessed as inhibition of bacterial metabolism within the biofilm at 8 ug/ml measured after 48 hrs by MTT assay relative to control

Escherichia coli [15] = conditions: DSM 8579, time 48 hrs; remark: listed apart in the source
Description: Antibiofilm activity against Escherichia coli DSM 8579 assessed as inhibition of bacterial metabolism within the biofilm at 40 ug/ml measured after 48 hrs by MTT assay relative to control

Staphylococcus aureus [16] = conditions: ATCC 25923, time 48 hrs; remark: listed apart in the source
Description: Antibiofilm activity against Staphylococcus aureus ATCC 25923 assessed as inhibition of bacterial metabolism within the biofilm at 4 ug/ml measured after 48 hrs by MTT assay relative to control

For `COc1c(C(C)C)cc2c(c1O)[C@@]1(C(=O)O)CCCC(C)(C)[C@@H]1CC2`, the inhibition at 4 µg/mL (Staphylococcus aureus [1]) was 31.9%, the inhibition at 8 µg/mL (Listeria monocytogenes [2]) was 6.7% and the inhibition at 40 µg/mL (Escherichia coli [3]) was 3.2%. The inhibition at 80 µg/mL (Escherichia coli [4]) was 96.1%, the inhibition at 8 µg/mL (Staphylococcus aureus [5]) was 72% and the inhibition at 4 µg/mL (Pseudomonas aeruginosa [6]) was 68.6%. For the same molecule, the inhibition at 8 µg/mL (Listeria monocytogenes [7]) was 81%, the inhibition at 4 µg/mL (Listeria monocytogenes [8]) was 4% and the inhibition at 80 µg/mL (Escherichia coli [9]) was 66.3%. It also gave an inhibition at 4 µg/mL (Pseudomonas aeruginosa [10]) of 43.2%, an inhibition at 4 µg/mL (Listeria monocytogenes [11]) of 74.1% and an inhibition at 8 µg/mL (Pseudomonas aeruginosa [12]) of 81.2%. For the same molecule, the inhibition at 8 µg/mL (Pseudomonas aeruginosa [13]) was 71.6%, the inhibition at 8 µg/mL (Staphylococcus aureus [14]) was 0% and the inhibition at 40 µg/mL (Escherichia coli [15]) was 67.2%. For the same molecule, the inhibition at 4 µg/mL (Staphylococcus aureus [16]) was 0%.

For `CC(C)c1cc2c(cc1O)[C@@]1(C)CCCC(C)(C)[C@@H]1CC2` [FERRUGINOL], the inhibition at 4 µg/mL (Staphylococcus aureus [1]) was 38.5%, the inhibition at 8 µg/mL (Listeria monocytogenes [2]) was 14.2% and the inhibition at 40 µg/mL (Escherichia coli [3]) was 19.2%. It also gave an inhibition at 80 µg/mL (Escherichia coli [4]) of 24.7%, an inhibition at 8 µg/mL (Staphylococcus aureus [5]) of 44.6% and an inhibition at 4 µg/mL (Pseudomonas aeruginosa [6]) of 52.2%. It also gave an inhibition at 8 µg/mL (Listeria monocytogenes [7]) of 60.9%, an inhibition at 4 µg/mL (Listeria monocytogenes [8]) of 0% and an inhibition at 80 µg/mL (Escherichia coli [9]) of 37.5%. For the same molecule, the inhibition at 4 µg/mL (Pseudomonas aeruginosa [10]) was 20.3%, the inhibition at 4 µg/mL (Listeria monocytogenes [11]) was 35.6% and the inhibition at 8 µg/mL (Pseudomonas aeruginosa [12]) was 53.2%. The inhibition at 8 µg/mL (Pseudomonas aeruginosa [13]) was 45.2%, the inhibition at 8 µg/mL (Staphylococcus aureus [14]) was 27.9% and the inhibition at 40 µg/mL (Escherichia coli [15]) was 9.1%. It also gave an inhibition at 4 µg/mL (Staphylococcus aureus [16]) of 0%.

`C=C(C)[C@@H]1CC[C@]2(C(=O)O)CC[C@]3(C)[C@H](CC[C@@H]4[C@@]5(C)CC[C@H](O)C(C)(C)[C@@H]5CC[C@]43C)[C@@H]12` [BETULINIC ACID] showed an inhibition at 4 µg/mL (Staphylococcus aureus [1]) of 30.7%, an inhibition at 8 µg/mL (Listeria monocytogenes [2]) of 18.7% and an inhibition at 40 µg/mL (Escherichia coli [3]) of 33.4%. The inhibition at 80 µg/mL (Escherichia coli [4]) was 22.6%, the inhibition at 8 µg/mL (Staphylococcus aureus [5]) was 75.2% and the inhibition at 4 µg/mL (Pseudomonas aeruginosa [6]) was 38%. It also gave an inhibition at 8 µg/mL (Listeria monocytogenes [7]) of 80.4%, an inhibition at 4 µg/mL (Listeria monocytogenes [8]) of 12.7% and an inhibition at 80 µg/mL (Escherichia coli [9]) of 54.4%. It also gave an inhibition at 4 µg/mL (Pseudomonas aeruginosa [10]) of 31.9%, an inhibition at 4 µg/mL (Listeria monocytogenes [11]) of 75.6% and an inhibition at 8 µg/mL (Pseudomonas aeruginosa [12]) of 63.4%. It also gave an inhibition at 8 µg/mL (Pseudomonas aeruginosa [13]) of 72.2%, an inhibition at 8 µg/mL (Staphylococcus aureus [14]) of 14% and an inhibition at 40 µg/mL (Escherichia coli [15]) of 15%. The inhibition at 4 µg/mL (Staphylococcus aureus [16]) was 0%.

In the case of `CC1(C)C[C@@H](O)C[C@](C)(O)/C1=C\C(=O)O`, the inhibition at 4 µg/mL (Staphylococcus aureus [1]) is reported as 12.6%, the inhibition at 8 µg/mL (Listeria monocytogenes [2]) is reported as 33.3% and the inhibition at 40 µg/mL (Escherichia coli [3]) is reported as 28.6%. The inhibition at 80 µg/mL (Escherichia coli [4]) was 38.6%, the inhibition at 8 µg/mL (Staphylococcus aureus [5]) was 31.5% and the inhibition at 4 µg/mL (Pseudomonas aeruginosa [6]) was 0%. The inhibition at 8 µg/mL (Listeria monocytogenes [7]) was 10.2%, the inhibition at 4 µg/mL (Listeria monocytogenes [8]) was 13.1% and the inhibition at 80 µg/mL (Escherichia coli [9]) was 50.3%. It also gave an inhibition at 4 µg/mL (Pseudomonas aeruginosa [10]) of 29.2%, an inhibition at 4 µg/mL (Listeria monocytogenes [11]) of 0% and an inhibition at 8 µg/mL (Pseudomonas aeruginosa [12]) of 55.5%. It also gave an inhibition at 8 µg/mL (Pseudomonas aeruginosa [13]) of 35.7%, an inhibition at 8 µg/mL (Staphylococcus aureus [14]) of 49.3% and an inhibition at 40 µg/mL (Escherichia coli [15]) of 14.2%. It also gave an inhibition at 4 µg/mL (Staphylococcus aureus [16]) of 44.7%.

With `CC1(C)C[C@H](O)[C@]23CC[C@@H](O)[C@](C)(CC[C@@H]12)C3` the inhibition at 4 µg/mL (Staphylococcus aureus [1]) was 0%, the inhibition at 8 µg/mL (Listeria monocytogenes [2]) was 17.8% and the inhibition at 40 µg/mL (Escherichia coli [3]) was 3.2%. The inhibition at 80 µg/mL (Escherichia coli [4]) was 37.5%, the inhibition at 8 µg/mL (Staphylococcus aureus [5]) was 0% and the inhibition at 4 µg/mL (Pseudomonas aeruginosa [6]) was 39.8%. For the same molecule, the inhibition at 8 µg/mL (Listeria monocytogenes [7]) was 17.8%, the inhibition at 4 µg/mL (Listeria monocytogenes [8]) was 8.7% and the inhibition at 80 µg/mL (Escherichia coli [9]) was 45.4%. For the same molecule, the inhibition at 4 µg/mL (Pseudomonas aeruginosa [10]) was 39.8%, the inhibition at 4 µg/mL (Listeria monocytogenes [11]) was 8.7% and the inhibition at 8 µg/mL (Pseudomonas aeruginosa [12]) was 40%. For the same molecule, the inhibition at 8 µg/mL (Pseudomonas aeruginosa [13]) was 40%, the inhibition at 8 µg/mL (Staphylococcus aureus [14]) was 0% and the inhibition at 40 µg/mL (Escherichia coli [15]) was 1.6%. The inhibition at 4 µg/mL (Staphylococcus aureus [16]) was 0%.

`CC(=O)O[C@H]1CC(C)(C)[C@@H]2CC[C@]3(C)C[C@]12CC[C@H]3O` was tested, and the inhibition at 4 µg/mL (Staphylococcus aureus [1]) was 3.2%, the inhibition at 8 µg/mL (Listeria monocytogenes [2]) was 29.4% and the inhibition at 40 µg/mL (Escherichia coli [3]) was 0%. For the same molecule, the inhibition at 80 µg/mL (Escherichia coli [4]) was 42%, the inhibition at 8 µg/mL (Staphylococcus aureus [5]) was 16.4% and the inhibition at 4 µg/mL (Pseudomonas aeruginosa [6]) was 15.2%. It also gave an inhibition at 8 µg/mL (Listeria monocytogenes [7]) of 23.3%, an inhibition at 4 µg/mL (Listeria monocytogenes [8]) of 20.6% and an inhibition at 80 µg/mL (Escherichia coli [9]) of 29.6%. The inhibition at 4 µg/mL (Pseudomonas aeruginosa [10]) was 30.4%, the inhibition at 4 µg/mL (Listeria monocytogenes [11]) was 14.6% and the inhibition at 8 µg/mL (Pseudomonas aeruginosa [12]) was 45.9%. For the same molecule, the inhibition at 8 µg/mL (Pseudomonas aeruginosa [13]) was 45.9%, the inhibition at 8 µg/mL (Staphylococcus aureus [14]) was 4.7% and the inhibition at 40 µg/mL (Escherichia coli [15]) was 0%. It also gave an inhibition at 4 µg/mL (Staphylococcus aureus [16]) of 0%.
